The values that follow come from ChEMBL document CHEMBL1153255, “Studies on irreversible inhibition of serine proteases by -sulfonyloxyketone derivatives” (Bioorg Med Chem Lett, 1996).

The target of assay [1] is Chymotrypsinogen A (Bos taurus) (UniProt P00766). Kind of assay: Compound was evaluated for inhibitory activity against alpha- chymotrypsin.
Assay [2] addresses T1, Chymotrypsin-like elastase family member 2A (Sus scrofa) (UniProt P08419).
T1 sequence (whole entry): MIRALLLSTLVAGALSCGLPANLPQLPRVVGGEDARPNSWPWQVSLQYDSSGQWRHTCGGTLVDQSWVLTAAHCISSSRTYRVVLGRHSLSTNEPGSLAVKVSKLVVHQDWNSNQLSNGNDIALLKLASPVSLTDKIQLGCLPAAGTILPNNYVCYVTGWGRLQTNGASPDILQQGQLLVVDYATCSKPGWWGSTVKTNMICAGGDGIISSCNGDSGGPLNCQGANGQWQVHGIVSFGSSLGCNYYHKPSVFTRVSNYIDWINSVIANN
Kind of assay: Compound was evaluated for inhibitory activity against porcine pancreatic elastase; No inactivation.

In assay [3] the target is T1, Chymotrypsin-like elastase family member 2A (Sus scrofa). Put plainly: Compound was evaluated for inhibitory activity against porcine pancreatic elastase.
Assay [4] concerns the target Chymotrypsinogen A (Bos taurus) (UniProt P00766). Kind of assay: Compound was evaluated for its inhibitory activity against alpha- chymotrypsin.

`CC(=O)C(Cc1ccccc1)OS(=O)(=O)c1ccc(C)cc1` (configuration not stated): the I in assay [1] was found to be 0.096 mM; in assay [3], 0.103 mM. The figures for the K obs / 1 in assay [1] and in assay [2] were 10.5 M⁻¹ s⁻¹ and “No inhibition”, respectively.

Take `CC(=O)C(Cc1ccccc1)OS(C)(=O)=O` (configuration not stated): in assay [1], the I is 2.31 mM and the K obs / 1 worked out at 0.33 M⁻¹ s⁻¹.

In the case of `CC(=O)C(C)OS(=O)(=O)c1ccccc1` (configuration not stated), the values for the I in assay [1] and in assay [3] were 3.28 mM and 2.01 mM, respectively. Moreover, the K obs / 1 worked out at 0.01 M⁻¹ s⁻¹ in assay [1] and 0.19 M⁻¹ s⁻¹ in assay [3].

`Cc1ccc(S(=O)(=O)N[C@@H](Cc2ccccc2)C(=O)CCl)cc1` returned an I in assay [1] of 0.057 mM. In assay [4], this compound came in with a K obs / 1 of 7.7 M⁻¹ s⁻¹.
